The values below come from patent US8624040B2, “Substituted hydroxamic acids and uses thereof” (Millennium Pharmaceuticals, Inc., priority 2009, dated 2014).

The test concerns the target T1, purified human HDAC6 (Homo sapiens, UniProt Q9UBN7).
T1 construct: purchased BPS Bioscience 5006
T1 sequence (Q9UBN7 1-1215): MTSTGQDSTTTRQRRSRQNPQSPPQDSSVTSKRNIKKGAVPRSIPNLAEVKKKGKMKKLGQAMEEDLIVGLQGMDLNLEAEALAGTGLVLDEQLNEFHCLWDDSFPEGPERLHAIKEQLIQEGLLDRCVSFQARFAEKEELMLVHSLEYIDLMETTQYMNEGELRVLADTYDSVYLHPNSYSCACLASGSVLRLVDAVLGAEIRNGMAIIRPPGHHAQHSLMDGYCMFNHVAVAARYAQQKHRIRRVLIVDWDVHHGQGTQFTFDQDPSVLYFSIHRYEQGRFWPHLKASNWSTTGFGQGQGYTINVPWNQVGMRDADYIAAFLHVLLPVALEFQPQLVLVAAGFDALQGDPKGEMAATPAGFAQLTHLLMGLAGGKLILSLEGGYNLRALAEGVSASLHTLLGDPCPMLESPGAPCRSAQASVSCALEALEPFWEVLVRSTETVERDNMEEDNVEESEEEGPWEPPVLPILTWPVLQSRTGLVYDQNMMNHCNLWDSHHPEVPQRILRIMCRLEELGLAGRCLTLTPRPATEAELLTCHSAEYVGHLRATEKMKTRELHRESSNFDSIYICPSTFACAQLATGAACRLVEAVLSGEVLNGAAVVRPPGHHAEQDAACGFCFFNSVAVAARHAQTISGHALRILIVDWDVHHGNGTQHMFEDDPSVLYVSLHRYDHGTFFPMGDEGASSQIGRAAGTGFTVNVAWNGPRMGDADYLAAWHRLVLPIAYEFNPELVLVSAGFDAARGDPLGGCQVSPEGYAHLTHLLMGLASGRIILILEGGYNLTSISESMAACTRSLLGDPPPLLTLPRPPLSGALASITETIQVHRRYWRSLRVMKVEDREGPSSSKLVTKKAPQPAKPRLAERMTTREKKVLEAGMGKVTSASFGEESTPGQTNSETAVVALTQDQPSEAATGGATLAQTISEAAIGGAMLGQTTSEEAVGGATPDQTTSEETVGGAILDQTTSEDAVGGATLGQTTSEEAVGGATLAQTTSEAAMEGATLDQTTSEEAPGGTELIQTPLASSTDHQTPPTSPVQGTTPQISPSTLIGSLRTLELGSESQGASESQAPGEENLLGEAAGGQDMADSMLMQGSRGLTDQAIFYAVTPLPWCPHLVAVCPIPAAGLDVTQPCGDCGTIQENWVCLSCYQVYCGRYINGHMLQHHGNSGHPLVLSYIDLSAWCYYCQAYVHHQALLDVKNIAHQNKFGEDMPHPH
As to the kind of experiment: HDAC6 Enzyme Assay. It counts as biochemical. The following applies: enzyme inhibition, substrate Ac-Arg-Gly-Lys(Ac)-AMC, 1 hour at 30° C. The protocol: To measure the inhibition of HDAC6 activity, purified human HDAC6 (BPS Bioscience; Cat. No. 5006) is incubated with substrate Ac-Arg-Gly-Lys(Ac)-AMC peptide (Bachem Biosciences; Cat. No. I-1925) for 1 hour at 30° C. in the presence of test compounds or vehicle DMSO control. The reaction is stopped with the HDAC inhibitor trichostatin A (Sigma; Cat. No. T8552) and the amount of Arg-Gly-Lys-AMC generated is quantitated by digestion with trypsin (Sigma; Cat. No. T1426) and subsequent measurement of the amount of AMC released using a fluorescent plate reader (Pherastar; BMG Technologies) set at Ex 340 nm and Em 460 nm. Concentration response curves are generated by calculating the fluorescence increase in test compound-treated samples relative to DMSO-treated controls, and enzyme inhibition (IC50) values are determined from those curves.
A word on the IC50: it is the concentration that inhibits the measured activity by half. A higher IC50 goes with weaker potency. The molecule `CC(C)(C)C(=O)N1CCc2cc(C(=O)NO)sc2C1` [Compound 1, 6-(2,2-dimethylpropanoyl)-N-hydroxy-4,5,6,7-tetrahydrothieno[2,3-c]pyridine-2-carboxamide] showed an IC50 of under 0.05 µM.

`O=C(NO)c1cc2c(s1)CN(C(=O)C1CCCCC1)CC2` [Compound 2, 6-(cyclohexylcarbonyl)-N-hydroxy-4,5,6,7-tetrahydrothieno[2,3-c]pyridine-2-carboxamide] gave a 50% inhibitory concentration (IC50) of under 0.05 µM.

With `CC1(C(=O)N2CCc3cc(C(=O)NO)sc3C2)CCCCC1` [Compound 3, N-hydroxy-6-[(1-methylcyclohexyl)carbonyl]-4,5,6,7-tetrahydrothieno[2,3-c]pyridine-2-carboxamide], the IC50 was under 0.05 µM.

Take `CC(C)(C(=O)N1CCc2cc(C(=O)NO)sc2C1)c1ccc(Cl)cc1` [Compound 4, 6-[2-(4-chlorophenyl)-2-methylpropanoyl]-N-hydroxy-4,5,6,7-tetrahydrothieno[2,3-c]pyridine-2-carboxamide]: the concentration for half-maximal inhibition (IC50) is under 0.05 µM.

Turning to `O=C(NO)c1cc2c(s1)CN(C(=O)c1ccsc1)CC2` [Compound 5, N-hydroxy-6-(3-thienylcarbonyl)-4,5,6,7-tetrahydrothieno[2,3-c]pyridine-2-carboxamide], the IC50 is under 0.05 µM.

Molecule `CCC(Oc1ccccc1)C(=O)N1CCc2cc(C(=O)NO)sc2C1` (stereo not drawn) [Compound 6, N-hydroxy-6-(2-phenoxybutanoyl)-4,5,6,7-tetrahydrothieno[2,3-c]pyridine-2-carboxamide] displayed an IC50 of under 0.05 µM.

As for `COc1c(C(=O)N2CCc3cc(C(=O)NO)sc3C2)csc1Cl` [Compound 7, 6-[(5-chloro-4-methoxy-3-thienyl)carbonyl]-N-hydroxy-4,5,6,7-tetrahydrothieno[2,3-c]pyridine-2-carboxamide], the IC50 is under 0.05 µM.

In turn, `O=C(NO)c1cc2c(s1)CN(C(=O)c1[nH]nc3c1CCCC3)CC2` [Compound 8, N-hydroxy-6-(4,5,6,7-tetrahydro-2H-indazol-3-ylcarbonyl)-4,5,6,7-tetrahydrothieno[2,3-c]pyridine-2-carboxamide] returned an IC50 of under 0.05 µM.

Take `CCC(C(=O)N1CCc2cc(C(=O)NO)sc2C1)(c1ccccc1)c1ccccc1` [Compound 9, 6-(2,2-diphenylbutanoyl)-N-hydroxy-4,5,6,7-tetrahydrothieno[2,3-c]pyridine-2-carboxamide]: the IC50 lay within 0.05 to 0.1 µM.

In turn, `O=C(NO)c1cc2c(s1)CN(C(=O)C(C1CCCCC1)C1CCCCC1)CC2` [Compound 10, 6-(dicyclohexylacetyl)-N-hydroxy-4,5,6,7-tetrahydrothieno[2,3-c]pyridine-2-carboxamide] came in with an IC50 of 0.05 to 0.1 µM.

The molecule `Cc1nc(C(F)(F)F)c(C(=O)N2CCc3cc(C(=O)NO)sc3C2)s1` [Compound 11, N-hydroxy-6-{[2-methyl-4-(trifluoromethyl)-1,3-thiazol-5-yl]carbonyl}-4,5,6,7-tetrahydrothieno[2,3-c]pyridine-2-carboxamide] had an IC50 of under 0.05 µM.

`Cc1ccc(OCC(=O)N2CCc3cc(C(=O)NO)sc3C2)c(C)c1` [Compound 12, 6-[(2,4-dimethylphenoxy)acetyl]-N-hydroxy-4,5,6,7-tetrahydrothieno[2,3-c]pyridine-2-carboxamide] showed an IC50 of over 1 µM.

`O=C(NO)c1cc2c(s1)CN(C(=O)C1(c3ccc(F)cc3Cl)CCCC1)CC2` [Compound 13, 6-{[1-(2-chloro-4-fluorophenyl)cyclopentyl]carbonyl}-N-hydroxy-4,5,6,7-tetrahydrothieno[2,3-c]pyridine-2-carboxamide] gave an IC50 of under 0.05 µM.

Turning to `O=C(NO)c1cc2c(s1)CN(C(=O)C13CC4CC(CC(C4)C1)C3)CC2` [Compound 14, 6-[1-adamantylcarbonyl]-N-hydroxy-4,5,6,7-tetrahydrothieno[2,3-c]pyridine-2-carboxamide], the IC50 was under 0.05 µM.

Turning to `O=C(NO)c1cc2c(s1)CN(C(=O)C1CCCCN1S(=O)(=O)c1ccccc1)CC2` (stereo not drawn) [Compound 15, N-hydroxy-6-{[1-(phenylsulfonyl)piperidin-2-yl]carbonyl}-4,5,6,7-tetrahydrothieno[2,3-c]pyridine-2-carboxamide], the IC50 lay in the range of 0.05 to 0.1 µM.
